The values below come from paper PMC3380172 (Journal of the American Chemical Society, 2012).

pKi: −log10 of the molar value. Like-named read-outs stand apart in the source and are kept apart here.

Assay [1] relates to wildtype TbbTIM. The conditions noted are these: cited from earlier work.
The target in assay [2] is T1, L232A mutant TbbTIM (Trypanosoma brucei brucei, UniProt P04789, L232A). The conditions noted are these: 30 mM TEA, pH 7.5, 25 °C, I = 0.1 (NaCl), cited from earlier work.
Assay [3] deals with T2, I172A mutant TbbTIM (Trypanosoma brucei brucei, UniProt P04789, I172A). As to the kind of experiment: TIM-catalyzed isomerization of DHAP and arsenate inhibition. The assay is classed as biochemical. The conditions noted are these: 30 mM TEA, pH 7.5, 25 °C, I = 0.1 (NaCl).
Assay [4] concerns the target T2, I172A mutant TbbTIM. Format: biochemical. The conditions noted are these: for Fractional Product Yield fE: fraction of the three TIM-catalyzed products, 5 mM GAP, 65 nM I172A, D2O.
Assay [5] deals with E165D chicken TIM. The settings on record: cited from earlier work.
The test system of assay [6] is E165D/S96P chicken TIM. The conditions noted are these: cited from earlier work.
The target of assay [7] is T1, L232A mutant TbbTIM. The assay is classed as biochemical. The conditions noted are these: for Fractional Product Yield fE: fraction of the three TIM-catalyzed products, 5 mM GAP, 3.4 nM L232A, D2O.
Assay [8] deals with WT chicken TIM. The settings on record: cited from earlier work.
Assay [9] deals with T3, I172V mutant TbbTIM (Trypanosoma brucei brucei, UniProt P04789, I172V). As to the kind of experiment: TIM-catalyzed isomerization of DHAP and arsenate inhibition. The conditions noted are these: 30 mM TEA, pH 7.5, 25 °C, I = 0.1 (NaCl). Format: biochemical.
In assay [10] the target is T1, L232A mutant TbbTIM. The settings on record: 30 mM TEA, pH 7.5, 25 °C, I = 0.1 (NaCl), cited from earlier work. The source holds these as a separate data set.
In assay [11] the test system is E165D/S96P chicken TIM. The settings on record: cited from earlier work. This is another data set of the same source.
The subject of assay [12] is wildtype TbbTIM. The settings on record: 30 mM TEA, pH 7.5, 25 °C, I = 0.1 (NaCl), cited from earlier work.
In assay [13] the target is T3, I172V mutant TbbTIM. Description: TIM-catalyzed isomerization of GAP. Format: biochemical. The settings on record: 30 mM TEA, pH 7.5, 25 °C, I = 0.1 (NaCl).
Assay [14] deals with T2, I172A mutant TbbTIM. Description: TIM-catalyzed isomerization of GAP. The assay is classed as biochemical. The settings on record: 30 mM TEA, pH 7.5, 25 °C, I = 0.1 (NaCl).
In assay [15] the test system is E165D chicken TIM. The settings on record: cited from earlier work. This is another data set of the same source.
Assay [16] relates to wildtype TbbTIM. Format: biochemical, Trypanosoma brucei brucei. The settings on record: reaction of GAP in D2O, pD 7.9, 25 °C; from product yields.
Assay [17] has as its system WT chicken TIM. The conditions noted are these: cited from earlier work. The source holds these as a separate data set.
The target of assay [18] is T3, I172V mutant TbbTIM. Description: Reaction of [1-13C]-GA in D2O with and without phosphite dianion, 1H NMR. The assay is classed as biochemical. The conditions noted are these: for Average product yield (mole fraction), phosphite dianion-activated reaction / Fractional yield from reaction at the enzyme active site: 20 mM [1-13C]-GA, D2O; for Average product yield (mole fraction), phosphite dianion-activated reaction: pD 7.0, I = 0.1, 25 °C, average over [HPO3^2-]; for Fractional yield from reaction at the enzyme active site: value in parenthesis, [HPO3^2-] 0 mM, pD 7.0, 25 °C.

For assay [19], the target named is T2, I172A mutant TbbTIM. Described as above. The assay is classed as biochemical. The settings on record: for Average product yield (mole fraction), phosphite dianion-activated reaction: 20 mM [1-13C]-GA, D2O, pD 7.0, I = 0.1, 25 °C, average over [HPO3^2-].
Assay [20] deals with T1, L232A mutant TbbTIM. The assay is described as above. Format: biochemical. The conditions noted are these: for Average product yield (mole fraction), phosphite dianion-activated reaction: 20 mM [1-13C]-GA, D2O, pD 7.0, I = 0.1, 25 °C, average over [HPO3^2-].
Setting [21] is: isomerization of GAP in D2O with intramolecular transfer of hydrogen.
Setting [22] is: reaction of GAP in D2O, pD 7.9, 25 °C, from product yields.
Where [23] appears, read: unactivated reaction of [1-13C]-GA in D2O (no HPO3^2-).
Setting [24] is: isomerization of [1-13C]-GA in D2O.
The mark [25] stands for this setting: read-out: Ki (arsenate), inhibition of DHAP isomerization.

With `O=C(CO)COP(=O)(O)O` [DHAP, dihydroxyacetone phosphate], the “kcat (DHAP)” value in the assay with wildtype TbbTIM [1] (30 mM TEA, pH 7.5, 25 °C, I = 0.1 (NaCl)) was 300 s⁻¹; at L232A mutant TbbTIM [2], 4.7 s⁻¹; on I172A mutant TbbTIM [3], 17 s⁻¹; in the assay on E165D chicken TIM [5] it was 4.1 s⁻¹; in the assay with E165D/S96P chicken TIM [6], 3.4 s⁻¹; in the assay on WT chicken TIM [8], 600 s⁻¹. Further, the “kcat (DHAP)” value at I172V mutant TbbTIM [9] came to 65 s⁻¹. Further, the Michaelis-Menten constant (Km) in the assay with wildtype TbbTIM [1] (read-out: Km (DHAP), 30 mM TEA, pH 7.5, 25 °C, I = 0.1 (NaCl)) is 700 µM; on L232A mutant TbbTIM [2] (read-out: Km (DHAP)), 77 µM; on I172A mutant TbbTIM [3] (read-out: Km (DHAP)), 3700 µM; in the assay with E165D chicken TIM [5] (read-out: Km (DHAP)), 1200 µM; in the assay on E165D/S96P chicken TIM [6] (read-out: Km (DHAP)) it was 53 µM; in the assay on WT chicken TIM [8] (read-out: Km (DHAP)) it was 650 µM. The Km on I172V mutant TbbTIM [9] (read-out: Km (DHAP)) came to 200 µM. Also, the “Fractional Product Yield fE” value amounted to 0.13 on I172A mutant TbbTIM [4] (pD 7.9, 25 °C) and 0.041 on L232A mutant TbbTIM [7] (pD 7.9, 25 °C). Besides, the yield of product at I172A mutant TbbTIM [4] (setting [21]) amounted to 13%; at L232A mutant TbbTIM [7] (setting [21]), 4%.

As for `O=C[C@H](O)COP(=O)(O)O` [GAP, R-glyceraldehyde 3-phosphate], the “kcat (GAP)” value at L232A mutant TbbTIM [10] is 220 s⁻¹; in the assay on E165D/S96P chicken TIM [11], 68 s⁻¹; in the assay on wildtype TbbTIM [12] it was 2100 s⁻¹; at I172V mutant TbbTIM [13] it was 225 s⁻¹; on I172A mutant TbbTIM [14] it was 12 s⁻¹; in the assay on E165D chicken TIM [15], 4.2 s⁻¹. The “kcat (GAP)” value with WT chicken TIM [17] was 8300 s⁻¹. The Km on L232A mutant TbbTIM [10] (read-out: Km (GAP)) was 140 µM; with E165D/S96P chicken TIM [11] (read-out: Km (GAP)), 66 µM; in the assay with wildtype TbbTIM [12] (read-out: Km (GAP)), 250 µM; on I172V mutant TbbTIM [13] (read-out: Km (GAP)) it was 58 µM; at I172A mutant TbbTIM [14] (read-out: Km (GAP)), 150 µM; in the assay on E165D chicken TIM [15] (read-out: Km (GAP)), 78 µM. In addition, the Km in the assay with WT chicken TIM [17] (read-out: Km (GAP)) is 420 µM. Besides, the “Rate Constant Ratio (kC1)D/(kC2)D” value on I172A mutant TbbTIM [4] (setting [22]) was 0.74; on L232A mutant TbbTIM [7] (setting [22]) it was 8.8; in the assay on wildtype TbbTIM [16] it was 1.7. In addition, the “Rate Constant Ratio kex/(kC1)H” value on I172A mutant TbbTIM [4] (setting [22]) is 6.7; at L232A mutant TbbTIM [7] (setting [22]), 23; in the assay on wildtype TbbTIM [16] it was 1.5.

For the compound `[2H]C([2H])(O)[13CH]=O` [[1-^13C, 2,2-di-^2H]-GA], the yield of product at I172V mutant TbbTIM [18] (reaction of [1-13C]-GA in D2O in the absence of HPO3^2-) came out at 25%; on I172A mutant TbbTIM [19] (setting [23]), 38%.

As for `[2H]C(O)[13CH]=O` (stereo not drawn) [[1-^13C, 2-^2H]-GA], the results for the “Average product yield (mole fraction), phosphite dianion-activated reaction” value (from here on “Average product yield (mole fraction)”) at L232A mutant TbbTIM [20], on I172V mutant TbbTIM [18] and at I172A mutant TbbTIM [19] were 0.51 ± 0.02, 0.24 ± 0.02 and 0.30 ± 0.02, respectively. On I172V mutant TbbTIM [18], the “Fractional yield from reaction at the enzyme active site” value (from here on “Fractional yield from reaction”) was 0.55. For the same compound, the yield of product on I172A mutant TbbTIM [19] (setting [23]) was 15%.

For the compound `[2H][13CH](O)C=O` (stereo not drawn) [[2-^13C, 2-^2H]-GA], the “Average product yield (mole fraction)” value turned out to be 0.48 ± 0.02 at L232A mutant TbbTIM [20], 0.63 ± 0.01 on I172V mutant TbbTIM [18] and 0.25 ± 0.02 on I172A mutant TbbTIM [19]. Also, the “Fractional yield from reaction” value on I172V mutant TbbTIM [18] turned out to be 0.40.

On to `O=C[13CH2]O` [[2-^13C]-GA], for which the entries for the “Average product yield (mole fraction)” value on L232A mutant TbbTIM [20], on I172V mutant TbbTIM [18] and on I172A mutant TbbTIM [19] were 0.01 ± 0.001, 0.13 ± 0.01 and 0.02 ± 0.001, respectively. In addition, the results for the yield of product on L232A mutant TbbTIM [20] (setting [24]) and at I172A mutant TbbTIM [19] (setting [24]) were 1% and 2%, respectively. For the same compound, the “Fractional yield from reaction” value at I172V mutant TbbTIM [18] worked out at 0.04.

As to `O=[As](O)(O)O` [arsenate, arsenate dianion, reference compound], the pKi on wildtype TbbTIM [1] (read-out: Ki (competitive inhibitor), arsenate dianion, competitive) was 2.34; at E165D chicken TIM [5] (setting [25]), 1.92; on E165D/S96P chicken TIM [6] (setting [25]) it was 2.68; at WT chicken TIM [8] (setting [25]), 1.96.

With `[2H]C(O)C(=O)COP(=O)(O)O` (stereo not drawn) [d-DHAP], the “Fractional Product Yield fE” value on I172A mutant TbbTIM [4] (pD 7.9, 25 °C) was determined as 0.37; at L232A mutant TbbTIM [7] (pD 7.9, 25 °C), 0.86.

On to `O=C[C@H](O)COP(=O)(O)O` [d-GAP], for which the “Fractional Product Yield fE” value was 0.50 on I172A mutant TbbTIM [4] (pD 7.9, 25 °C) and 0.098 at L232A mutant TbbTIM [7] (pD 7.9, 25 °C).
